Source: PMC12378621, “Benzo-ring modification on Malaria Box hit MMV008138: effects on antimalarial potency and microsomal stability” (RSC Medicinal Chemistry, 2025)
“And” between values parts separate entries of the source, which are not always exact repeats. Identical values can stand only once. “Also recorded” adds a separate entry of the source. Each block holds one compound with its values, some of them ahead of it.

How the values were obtained:
[1] = system: P. falciparum (Dd2 strain); test: ABS P. falciparum growth inhibition, SYBR Green I assay, 72 h endpoint; format: cell-based, Plasmodium falciparum; settings: Plasmodium falciparum, DD2; Table 2, enantiopure, SYBR Green I, 72 h endpoint, average ± S.E.M; read-out: Dd2 strain P. falciparum growth inhibition EC50
Procedure: Parasites were maintained in O-positive human erythrocytes (Grifols, Memphis, TN, USA) at 5% hematocrit in RPMI 1640 medium supplemented with 5 g L^−1 Albumax I (Gibco Life Technologies), 2 g L^−1 glucose (Sigma-Aldrich), 2.3 g L^−1 sodium bicarbonate (Sigma-Aldrich), 370 μM hypoxanthine (Sigma-Aldrich), 25 mM HEPES, and 20 mg L^−1 gentamicin (Gibco Life Technologies). The parasites were kept at 37 °C under reduced-oxygen conditions (5% CO2, 5% O2, and 90% N2).
(§1) […]. MMV008138 (1) was used as control. The percentage of growth was normalized to that of untreated control parasites in the presence of 0.1% DMSO. Background determinations were made using uninfected erythrocytes. Two or more independent experiments in duplicate were performed. The EC50 values were calculated with GraphPad Prism 9 (GraphPad Software Ltd.) using nonlinear regression curve fitting with variable slope (four parameters) and represent the average and their standard error of the mean (S.E.M.). To assess whether 20a–e specifically targeted the apicoplast, the recovery of growth in the presence of inhibitor and isopentenyl diphosphate (IPP) was performed as described previously.[8] Briefly, parasites were grown in the presence or absence of 200 μM IPP along with a serial dilution (10 μM to 0.01 μM) or single concentration (10 or 20 μM) of drug. […] All conditions were set in 96-well half area plates using highly synchronous ring-stage parasite cultures (100 μL per well at 1% hematocrit and 1% parasitemia) and incubated for 72 h under normal culture conditions. Parasite growth was measured by the SYBR green I assay.

[2] = system: P. falciparum (Dd2 strain); test: Metabolic rescue of parasite growth by isopentenyl diphosphate (IPP) supplementation; format: cell-based, Plasmodium falciparum; settings: drug at 2.5 μM
Procedure: as §1

[3] = in vitro; settings: female, CD-1, mouse, microsomes, pH 7.4
Procedure: Mouse microsomal stability of 20a, 20c, 20d was first assessed in our laboratory. […]
and coumarin were used as controls . Microsomal stability was assessed by ultra-performance liquid chromatography and high -resolution mass spectrometry […]
MA). Potassium phosphate monobasic, potassium phosphate dibasic, and coumarin were purchased from Sigma-Aldrich (St. Louis, MO). Briefly, compound incubations were carried out by the addition of mouse liver microsomes (0.5 mg/ml) in 0.05 M potassium phosphate buffer (pH 7.4), solution A and B, and preincubated at 37°C for 5 min. Control experiments were also carried out in the absence of NADPH solution A and B. Coumarin reaction was used as positive control. Reactions were terminated by adding acetonitrile. Sample analysis was performed on an IonKey/MS system composed of an ACQUITY UPLC M-Class, the ionKey source, and an iKey BEH C18 130 Å 1.7 µm 150 µm x 50 mm column coupled to a Synapt G2-Si mass spectrometer (Waters Corporation, Milford, MA, USA). Separation was accomplished using a binary gradient system consisting of 0.1% formic acid in water (mobile phase A) and 0.1% formic acid in acetonitrile (mobile phase B). The linear gradient was programmed as follows: 0-3 min 1% B, 3- […]
was 3 µL/min, the injection volume was 3 µL in full loop mode, and the iKey temperature was set at 40°C. MS analyses were performed acquiring in MSE mode from 80 to 1500 m/z in positive electrospray ionization mode with a capillary voltage of 3 kV. Data were collected in two channels all the time: low collision energy (6.0 V), for the molecular ions, and high collision energy (15-40 V), for product ions. The source temperature was set at 110°C. Leucine […]
scan at 20 s intervals. Infusion flow rate for lock mass was 1 μL/min. The microsomal stability was determined using MassLynx software (Waters Corporation, Milford, MA, USA). Relative amounts were calculated by comparing the peak area of each evaluated compound at time 0 minutes to its corresponding area at times 45, 90 and 180 minutes to return a ratio.

[4] = in vitro; settings: male, mouse, microsomes; for % remaining, Replicate 1 / Replicate 2: 1 µM
Procedure: Metabolic stability of 1 was studied in pooled male mouse liver microsomes (final concentration 0.5 mg/mL, 5 mM MgCl 2, 100 mM phosphate buffer). The final concentration of test […]
The mixture was pre-warmed 37°C for 5 min before addition of 50 μL of 10 mM NADPH solution at the final concentration of 1 mM and carried out at 37°C. 50 μL of ultra-pure H2O was used instead of NADPH solution in the […]
negative control. […] Drug […]
concentrations were determined using triple quad LC-MS (Table S5).
(§2) (1 picture or pasted object on this page, not shown here)

[5] = system: Plasmodium berghei ANKA expressing luciferase (PbGFP-Luccon); test: In vivo efficacy in P. berghei-infected mice (luminescence on Day 7)
Procedure: 2. In vivo efficacy studies of 1 (NYU) in P. berghei-infected mice (po and iv) Efficacy of 1 in P. berghei-infected mice was assessed at the Anti-Infectives Core Facility, Department of Microbiology, Grossman School of Medicine, New York University.
A. Oral Administration Protocol
Three groups of five female Swiss Webster mice weighing 25 to 30 g were used for vehicle […]
berghei ANKA expressing luciferase (PbGFP-Luccon) obtained from a donor infected mouse.10 […]
2 to 6 and imaged on day 7.
Figure S1. Dosing and imaging timeline of P. berghei-infected mice. […]
Day 7 as described in the text.
The vehicle for all groups was 0.5% (hydroxypropyl)methyl cellulose, 0.5% Tween-80.
For the surviving mice, o n day 7 after infection, mice were anesthetized by inhalation of isofluorane and injected via i.p. with 150 mg/kg of luciferase substrate dissolved in PBS (D-Luciferin Potassium Salt , Gold Biotechnology ).
Mice were imaged 5 to 10 min after inj ection of luciferin using an IVIS imager (Lumina II In Vivo Imaging System; Perkin -Elmer). The data acquisition and analysis were performed with LivingImage (Xenogen). Accumulated light intensity was measured in each mouse to determine the baseline infection levels before treatment .
as §2
B. IV Administration Protocol
One group of four female Swiss Webster mice weighing 25 to 30 g were used for vehicle control, and groups of five mice were used for 1 treatment (IV, 2 x 30 mg/kg/d) and the positive […]
On Day 0, mice were infected via intraperitoneal (i.p.) […]
from a donor infected mouse. 10 As shown below in Figure S2 (and legend), mice were treated […]
Figure S2. Dosing and imaging timeline of P. berghei-infected mice. Vehicle and 1 (30 mpk) treatments were administered IV twice -daily on Days 2-6. […]
administered i .p. once-daily. Mice were imaged on Day 7, as described in the text.
The vehicle for this study was 30%PEG, 40% Captisol (30%w/v solution).
Table S2. Luminescence Data after background subtraction for IV dosing of Vehicle, 1, and IP […]
Table S9. Concentration of 20c vs time in mice. […]
Figure S6. Dosing and imaging timeline of P. berghei-infected mice. […]

[6] = in vivo; settings: mouse
Procedure: 3. Pharmacokinetics of 1 in mice
Pharmacokinetic analysis of 1 in mice was performed by Pharmaron (Beijing, China). Three mice each (23 ± 1 g) were used for oral (40 mg/kg, gavage, conscious) and for IV (10 mg/kg, lateral tail vein with anesthesia) administration. The vehicle for both routes wa s 20% DMSO, 60% PEG400 and 20% SBE-β-CD (30% w/v) in water. Stock concentrations were 4 mg/mL (both oral and IV respectively), and mice were dosed at 10.0 and 2.5 mL/kg (oral and IV respectively).
Quantitation was performed by triple-quad LC-MS.

[7] = % remaining, Replicate 1 / Replicate 2
[8] = Table S10, 40 mg/kg 1 x daily PO Days 2-6, imaged Day 7
[9] = iv, 10 mg/kg, plasma concentration
[10] = po, 40 mg/kg, plasma concentration

EC50 [1]: 451 ± 28 nM
half-life [3]: ~0.167 h
SMILES: O=C(O)[C@@H]1Cc2c([nH]c3cccc(F)c23)[C@@H](c2ccc(Cl)cc2Cl)N1 [Compound 20a]
% recovery (200 μM IPP) [2]: 100%@2.5 μM

SMILES: O=C(O)[C@@H]1Cc2c([nH]c3cc(F)ccc23)[C@@H](c2ccc(Cl)cc2Cl)N1 [Compound 20c]
% remaining, Replicate 1 / Replicate 2 ([4]; 5 min): 105.2%
% remaining, Replicate 1 / Replicate 2 ([4]; 10 min): 105.5%
% remaining, Replicate 1 / Replicate 2 ([4]; 0.25 h): 100.5%
% remaining, Replicate 1 / Replicate 2 ([4]; 20 min): 100.4%
% remaining, Replicate 1 / Replicate 2 ([4]; 0.5 h): 85.7%
remaining at 0.5 min, 1 µM [4, 7]: 100%
remaining at 5 min, 1 µM [4, 7]: 90.9%
remaining at 10 min, 1 µM [4, 7]: 91.4%
remaining at 0.25 h, 1 µM [4, 7]: 84.7%
remaining at 20 min, 1 µM [4, 7]: 85.9%
remaining at 0.5 h, 1 µM [4, 7]: 95.2%
reduction of luminescence relative to vehicle control ([5]; 40 mg/kg po Days 2-6, Day 7): did not reduce luminescence
reduction in parasitemia / efficacy ([5]; P. berghei mouse model, oral dosing (20c 5 × 40 mg per kg per day)): no reduction in parasitemia; also recorded: not efficacious
Luminescence after background subtraction AVG [5, 8]: 9.7E+06
Luminescence after background subtraction, individual mice [5, 8]: 6.51E+05 and 2.35E+06 and 3.10E+06 and 4.05E+05 and 1.33E+06
EC50 [1]: 501 ± 47 nM
% recovery (200 μM IPP) [2]: 100%@2.5 μM
AUC(0-inf) ([6]; iv, 10 mg/kg): 49.6 µM·h
AUC(0-t) ([6]; iv, 10 mg/kg): 48.7 µM·h
C0 ([6]; iv, 10 mg/kg): 34.5 µM
clearance ([6]; iv, 10 mg/kg): 8.85 mL/min/kg
tlast ([6]; iv, 10 mg/kg): 24 h
concentration at 24 h ([6]; iv, 10 mg/kg, Cmin): 0.1 ± 0.1 µM
concentration at 0.083 h [6, 9]: 33.3 µM
concentration at 0.25 h [6, 9]: 30.9 ± 4 µM
concentration at 0.5 h [6, 9]: 14.4 ± 4.1 µM
concentration at 1 h [6, 9]: 9.7 ± 2 µM
concentration at 2 h [6, 9]: 3.3 ± 1.5 µM
concentration at 4 h [6, 9]: 1.4 ± 0.4 µM
concentration at 8 h [6, 9]: 1.4 ± 0.3 µM
concentration at 24 h [6, 9]: 0.1 ± 0.1 µM
half-life ([6]; iv, 10 mg/kg, t1/2): 4.96 h
AUC0-inf ([6]; po, 40 mg/kg): 114 µM·h
AUC(0-inf) ([6]; po, 40 mg/kg): 114 µM·h
AUC(0-t) ([6]; po, 40 mg/kg): 110 µM·h
Cmax ([6]; po, 40 mg/kg): 19.9 ± 8.1 µM
Tmax ([6]; po, 40 mg/kg): 0.5 h
oral AUC0-inf higher than that of 1 ([6]; po, 40 mg/kg): 30%
tlast ([6]; po, 40 mg/kg): 24 h
bioavailability ([6]; po, 40 mg/kg, % F): 58%
bioavailability ([6]; po, 40 mg/kg, %F): 57.8%
concentration at 24 h ([6]; po, 40 mg/kg, Cmin): 0.6 ± 0.6 µM
concentration at 0.25 h [6, 10]: 19.8 ± 8.1 µM
concentration at 0.5 h [6, 10]: 19.9 ± 3.2 µM
concentration at 1 h [6, 10]: 13.9 ± 10.8 µM
concentration at 2 h [6, 10]: 8.8 ± 5.9 µM
concentration at 4 h [6, 10]: 10 ± 3.7 µM
concentration at 8 h [6, 10]: 3.9 ± 0.7 µM
concentration at 24 h [6, 10]: 0.6 ± 0.06 µM
half-life ([6]; po, 40 mg/kg, t 1/2): 5.2 h
half-life ([6]; po, 40 mg/kg, t1/2): 5.17 h
